Laboratory results as given in patent publication US8754209B2, “Indazole derivatives or pharmaceutically acceptable salts thereof as protein kinase inhibitors for proliferative diseases treatment, and a pharmaceutical composition containing the same as an active ingredient” (Korea Institute of Science and Technology, priority 2009, dated 2014).

Tested on: A375P cells
Assay: Anti-proliferative activity on A375P cell line (MTT assay)
Assay type: cell-based
Conditions: A375P human melanoma cell line
Method: A375P cells were purchased from American Type Culture Collection (ATCC, Rockville, Md., US) and maintained in DMEM medium (Welgene, Daegu, Korea) supplemented with 10% FBS (Welgene) and 1% penicillin/streptomycin (Welgene) in a humidified atmosphere with 5% CO2 at 37° C. The A375P cells were taken from culture substrate with 0.05% trypsin-0.02% EDTA and plated at a density of 5×10^3 cells/well in 96 well plates and then incubated at 37° C. for 24 h in a humidified atmosphere with 5% CO2 prior to treatment of various concentration (three fold serial dilution, 12 points) of test compounds. The A357P cell viability was assessed by the conventional 3-(4,5-dimethylthiazol-2-yl)-2,5-diphenyltetrazolium bromide (MTT) reduction assay. MTT assays were carried out with CellTiter 96 (Promega) according to the manufacturer's instructions.
After 1 day, 0.5 μl the representative compounds of the examples were added thereto. The representative compounds of the examples were prepared by three fold serial dilution of 10 mM stock solution in DMSO, 12 point (final conc. DMSO 0.5%). Then, 15 μl dye was added in each well. After 2 h, 100 μl stop solution was added each well. After 24 h, absorbance was measured. The absorbance at 590 nm was recorded using EnVision2103 (PerkinElmer; Boston, Mass., US). The IC50 value was calculated using GraphPad Prism 4.0 software.

GI50, < 10 µM:
CCOC(=O)c1n[nH]c2cc(-c3cccc(NS(=O)(=O)c4cccc(C(F)(F)F)c4)c3)ccc12 [Example 68, ethyl 6-(3-(3-(trifluoromethyl)phenylsulfonamido)phenyl)-1H-indazole-3-carboxylate]
CCOC(=O)c1n[nH]c2cc(-c3ccc(NC(=O)Nc4cccc(C(F)(F)F)c4)cc3)ccc12 [Example 23, ethyl 6-(4-(3-(3-(trifluoromethyl)phenyl)ureido)phenyl)-1H-indazole-3-carboxylate]
CCOC(=O)c1n[nH]c2cc(-c3ccc(NC(=O)Cc4ccc(OC)c(OC)c4)cc3)ccc12 [Example 11, ethyl 6-(4-(2-(3,4-dimethoxyphenyl)acetamido)phenyl)-1H-indazole-3-carboxylate]
CCOC(=O)c1n[nH]c2cc(-c3cccc(NC(=O)c4cc5ccccc5s4)c3)ccc12 [Example 47, ethyl 6-(3-(benzo[b]thiophene-2-carboxamido)phenyl)-1H-indazole-3-carboxylate]
COC(=O)c1n[nH]c2cc(-c3cccc(NC(=O)c4cc(N5CCOCC5)cc(C(F)(F)F)c4)c3)ccc12 [Example 52, methyl 6-(3-(3-morpholino-5-(trifluoromethyl)benzamido)phenyl)-1H-indazole-3-carboxylate]
O=C(Nc1ccc(-c2ccc3c(C(=O)NCCN4CCOCC4)n[nH]c3c2)cc1)c1ccc(Br)s1 [Example 31, 6-(4-(5-bromothiophene-2-carboxamido)phenyl)-N-(2-morpholinoethyl)-1H-indazole-3-carboxamide]
CNC(=O)c1n[nH]c2cc(-c3ccc(NC(=O)c4ccc(-c5ccc(OC)cc5)o4)cc3)ccc12 [Example 25, 6-(4-(5-(4-methoxyphenyl)furan-2-carboxamido)phenyl)-N-methyl-1H-indazole-3-carboxamide]
COc1ccc(-n2ncc(C(=O)Nc3ccc(-c4ccc5c(C(=O)NCCN6CCOCC6)n[nH]c5c4)cc3)c2C(F)(F)F)cc1 [Example 34, 6-(4-(1-(4-methoxyphenyl)-5-(trifluoromethyl)-1H-pyrazole-4-carboxamido)phenyl)-N-(2-morpholinoethyl)-1H-indazole-3-carboxamide]
Cc1ccc(NC(=O)c2cccc(C(F)(F)F)c2)cc1-c1ccc2c(C(=O)NCCN3CCOCC3)n[nH]c2c1 [Example 67, 6-(2-methyl-5-(3-(trifluoromethyl)benzamido)phenyl)-N-(2-morpholinoethyl)-1H-indazole-3-carboxamide]
CCOC(=O)c1n[nH]c2cc(-c3ccc(NC(=O)c4ccc(-c5cc(C(F)(F)F)ccc5Cl)o4)cc3)ccc12 [Example 16, ethyl 6-(4-(5-(2-chloro-5-(trifluoromethyl)phenyl)furan-2-carboxamido)phenyl)-1H-indazole-3-carboxylate]
O=C(Nc1ccc(-c2ccc3c(C(=O)Nc4cccc(C(F)(F)F)c4)n[nH]c3c2)cc1)c1ccc(Br)s1 [Example 35, 6-(4-(5-bromothiophene-2-carboxamido)phenyl)-N-(3-(trifluoromethyl)phenyl)-1H-indazole-3-carboxamide]
COC(=O)c1n[nH]c2ccc(-c3ccc(NC(=O)Nc4ccc(Cl)c(C(F)(F)F)c4)cc3)cc12 [Example 43, methyl 5-(4-(3-(4-chloro-3-(trifluoromethyl)phenyl)ureido)phenyl)-1H-indazole-3-carboxylate]
CNC(=O)c1n[nH]c2cc(-c3ccc(NC(=O)c4ccc(Br)s4)cc3)ccc12 [Example 26, 6-(4-(5-bromothiophene-2-carboxamido)phenyl)-N-methyl-1H-indazole-3-carboxamide]
COC(=O)c1n[nH]c2cc(-c3cccc(NC(=O)Nc4ccc(C)cc4C)c3)ccc12 [Example 56, methyl 6-(3-(3-(2,4-dimethylphenyl)ureido)phenyl)-1H-indazole-3-carboxylate]
CCOC(=O)c1n[nH]c2cc(-c3ccc(NC(=O)Nc4ccc(Cl)c(Cl)c4)cc3)ccc12 [Example 20, ethyl 6-(4-(3-(3,4-dichlorophenyl)ureido)phenyl)-1H-indazole-3-carboxylate]
O=C(Nc1cccc(-c2ccc3c(C(=O)NCCN4CCOCC4)n[nH]c3c2)c1)Nc1cccc(Cl)c1Cl [Example 60, 6-(3-(3-(2,3-dichlorophenyl)ureido)phenyl)-N-(2-morpholinoethyl)-1H-indazole-3-carboxamide]
CCOC(=O)c1n[nH]c2cc(-c3ccc(NC(=O)c4ccncc4Cl)cc3)ccc12 [Example 13, ethyl 6-(4-(3-chloroisonicotinamido)phenyl)-1H-indazole-3-carboxylate]
CCOC(=O)c1n[nH]c2cc(-c3ccc(NC(=O)c4ccnnc4)cc3)ccc12 [Example 10, ethyl 6-(4-(pyridazine-4-carboxamido)phenyl)-1H-indazole-3-carboxylate]
O=C(Nc1ccc(-c2ccc3c(C(=O)NCCN4CCOCC4)n[nH]c3c2)cc1)Nc1ccc(Cl)c(Cl)c1 [Example 36, 6-(4-(3-(3,4-dichlorophenyl)ureido)phenyl)-N-(2-morpholinoethyl)-1H-indazole-3-carboxamide]
CCNC(=O)c1n[nH]c2cc(-c3cccc(NC(=O)Nc4ccc(C)cc4C)c3)ccc12 [Example 63, 6-(3-(3-(2,4-dimethylphenyl)ureido)phenyl)-N-ethyl-1H-indazole-3-carboxamide]
CCNC(=O)c1n[nH]c2cc(-c3cccc(NC(=O)Nc4ccc(Cl)c(Cl)c4)c3)ccc12 [Example 62, 6-(3-(3-(3,4-dichlorophenyl)ureido)phenyl)-N-ethyl-1H-indazole-3-carboxamide]
Cc1ccc(NC(=O)Nc2ccc(Cl)c(C(F)(F)F)c2)cc1-c1ccc2c(C(=O)NC3CC3)n[nH]c2c1 [Example 66, 6-(5-(3-(4-chloro-3-(trifluoromethyl)phenyl)ureido)-2-methylphenyl)-N-cyclopropyl-1H-indazole-3-carboxamide]
CCOC(=O)c1n[nH]c2cc(-c3cccc(NC(=O)c4cc(N5CCC(O)CC5)cc(C(F)(F)F)c4)c3)ccc12 [Example 76, ethyl 6-(3-(3-(4-hydroxypiperidin-1-yl)-5-(trifluoromethyl)benzamido)phenyl)-1H-indazole-3-carboxylate]
CCOC(=O)c1n[nH]c2cc(-c3cccc(NC(=O)Nc4ccc(CN5CCN(CC)CC5)c(C(F)(F)F)c4)c3)ccc12 [Example 69, ethyl 6-(3-(3-(4-((4-ethylpiperazin-1-yl)methyl)-3-(trifluoromethyl)phenyl)ureido)phenyl)-1H-indazole-3-carboxylate]
O=C(Nc1ccc(-c2ccc3[nH]nc(C(=O)NCCN4CCOCC4)c3c2)cc1)Nc1ccc(Cl)c(C(F)(F)F)c1 [Example 72, 5-(4-(3-(4-chloro-3-(trifluoromethyl)phenyl)ureido)phenyl)-N-(2-morpholinoethyl)-1H-indazole-3-carboxamide]
CCOC(=O)c1n[nH]c2cc(-c3ccc(NC(=O)c4ccc(OC5CCN(C)CC5)c(C(F)(F)F)c4)cc3)ccc12 [Example 19, ethyl 6-(4-(4-(1-methylpiperidin-4-yloxy)-3-(trifluoromethyl)benzamido)phenyl)-1H-indazole-3-carboxylate]
Cc1ccc(NC(=O)Nc2ccc(Cl)c(C(F)(F)F)c2)cc1-c1ccc2c(C(=O)NCCN(C)C)n[nH]c2c1 [Example 65, 6-(5-(3-(4-chloro-3-(trifluoromethyl)phenyl)ureido)-2-methylphenyl)-N-(2-(dimethylamino)ethyl)-1H-indazole-3-carboxamide]
CCOC(=O)c1n[nH]c2cc(-c3cc(NC(=O)Nc4ccc(N5CCN(C)CC5)c(C(F)(F)F)c4)ccc3C)ccc12 [Example 71, ethyl 6-(2-methyl-5-(3-(4-(4-methylpiperazin-1-yl)-3-(trifluoromethyl)phenyl)ureido)phenyl)-1H-indazole-3-carboxylate]
CNC(=O)c1n[nH]c2cc(-c3ccc(NC(=O)c4cc5ccccc5s4)cc3)ccc12 [Example 27, 6-(4-(benzo[b]thiophene-2-carboxamido)phenyl)-N-methyl-1H-indazole-3-carboxamide]
O=C(Nc1cccc(-c2ccc3c(C(=O)NCCN4CCOCC4)n[nH]c3c2)c1)c1cc(N2CCOCC2)cc(C(F)(F)F)c1 [Example 59, 6-(3-(3-morpholino-5-(trifluoromethyl)benzamido)phenyl)-N-(2-morpholinoethyl)-1H-indazole-3-carboxamide]
CCOC(=O)c1n[nH]c2cc(-c3cccc(NC(=O)c4ccc(Br)s4)c3)ccc12 [Example 49, ethyl 6-(3-(5-bromothiophene-2-carboxamido)phenyl)-1H-indazole-3-carboxylate]
O=C(Nc1cccc(-c2ccc3c(C(=O)NCCN4CCOCC4)n[nH]c3c2)c1)c1cc(N2CCC(O)CC2)cc(C(F)(F)F)c1 [Example 77, 6-(3-(3-(4-hydroxypiperidin-1-yl)-5-(trifluoromethyl)benzamido)phenyl)-N-(2-morpholinoethyl)-1H-indazole-3-carboxamide]
CCOC(=O)c1n[nH]c2cc(-c3cccc(NC(=O)Nc4ccc(Cl)c(Cl)c4)c3)ccc12 [Example 55, ethyl 6-(3-(3-(3,4-dichlorophenyl)ureido)phenyl)-1H-indazole-3-carboxylate]
